From patent US12172969B2 (EVOFEM BIOSCIENCES, INC., priority 2018, dated 2024)

Tests used:
cDNA-expressed CYP2C8 = target: T1, cDNA-expressed CYP2C8 (Homo sapiens, UniProt P10632); assay: Metabolism by cDNA-expressed CYP2C8, parent remaining; conditions: 10 μM; for depletion by cDNA-expressed CYP2C8: 120 minutes
T1 sequence (P10632 1-490): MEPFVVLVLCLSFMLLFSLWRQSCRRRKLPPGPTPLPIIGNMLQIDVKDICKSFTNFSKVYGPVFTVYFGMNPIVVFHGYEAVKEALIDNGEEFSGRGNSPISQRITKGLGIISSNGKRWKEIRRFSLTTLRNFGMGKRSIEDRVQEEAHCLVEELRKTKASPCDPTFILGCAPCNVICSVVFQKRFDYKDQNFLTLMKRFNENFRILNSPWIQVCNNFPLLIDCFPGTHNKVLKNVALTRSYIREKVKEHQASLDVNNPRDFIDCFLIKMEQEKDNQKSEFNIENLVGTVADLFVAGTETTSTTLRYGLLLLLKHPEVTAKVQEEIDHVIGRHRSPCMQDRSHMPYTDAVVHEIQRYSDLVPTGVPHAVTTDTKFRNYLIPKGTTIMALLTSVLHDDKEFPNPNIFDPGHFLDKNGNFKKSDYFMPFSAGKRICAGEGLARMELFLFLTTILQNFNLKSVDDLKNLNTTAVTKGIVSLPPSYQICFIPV
Procedure: (§1) At two time points (0 and 120 min), the reaction was stopped by removing an aliquot and combining it with an equal volume of cold acetonitrile containing an internal standard (labetalol) and placement on ice. Samples were centrifuged to pellet the protein and the supernatant was frozen at −20° C. for subsequent analysis by LC-MS/MS.
(§2) Protein concentrations were constant for all isoforms within an experiment and standardized by the addition of control microsomes. Incubations were performed in duplicate. Incubations with vector control enzyme preparations and without enzyme source were included as negative controls.
(§3) The fraction of parent compound remaining compared to 0 min was determined based on peak area ratio (analyte/internal standard).

cDNA-expressed CYP2C9 = cDNA-expressed CYP2C9 (Homo sapiens, UniProt P11712); assay: Metabolism by cDNA-expressed CYP2C9, parent remaining; conditions: 10 μM; for depletion by cDNA-expressed CYP2C9: 120 minutes
cDNA-expressed CYP2C9, sequence (P11712 whole entry): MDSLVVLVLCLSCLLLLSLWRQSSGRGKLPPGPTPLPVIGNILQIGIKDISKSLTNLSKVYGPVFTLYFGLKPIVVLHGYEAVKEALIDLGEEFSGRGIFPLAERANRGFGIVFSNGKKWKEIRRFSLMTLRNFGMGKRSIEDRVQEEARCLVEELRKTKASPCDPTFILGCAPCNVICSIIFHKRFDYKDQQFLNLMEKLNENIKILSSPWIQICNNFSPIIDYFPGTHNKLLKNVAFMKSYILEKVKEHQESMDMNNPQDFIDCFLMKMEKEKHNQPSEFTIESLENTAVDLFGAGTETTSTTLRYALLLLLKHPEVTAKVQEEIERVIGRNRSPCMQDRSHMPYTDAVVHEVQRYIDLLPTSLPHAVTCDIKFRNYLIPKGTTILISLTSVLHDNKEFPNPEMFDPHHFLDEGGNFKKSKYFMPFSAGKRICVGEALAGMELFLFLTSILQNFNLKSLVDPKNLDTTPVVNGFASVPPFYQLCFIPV
Procedure: as §1, §2, §3

[1] = in vivo; cited from earlier work
[2] = system: cDNA-expressed CYP1A2, CYP2A6, CYP2B6, CYP2C8, CYP2C9, CYP2C19, CYP2D6, CYP2E1, CYP3A4, and CYP3A5; assay: Metabolism by cDNA-expressed human CYP enzymes (all isoforms), parent remaining by LC-MS/MS; conditions: 1.0 μM and 10 μM, 120 minutes incubation, 37° C., compared to 0 min
Procedure: as §1, §2
All other positive controls were assayed at one concentration in duplicate in accordance with the methods described above. The percent of parent remaining at the end of the incubation was compared to 0 min based on the peak area ratio of the substrate and internal standard.
as §3

Row | percent of parent remaining (cDNA-expressed CYP2C8; human, 2 h, pH 7.4) | percent of parent remaining (cDNA-expressed CYP2C9; human, 2 h, pH 7.4) | Compound | excreted intact in the urine [1] | average percent of parent compound remaining for all isoforms and concentrations [2] | depletion by cDNA-expressed CYP2C8 (cDNA-expressed CYP2C8) | depletion by cDNA-expressed CYP2C9 (cDNA-expressed CYP2C9)
1 | 82% | 79% | Cc1ncc([N+](=O)[O-])n1CC(C)O (stereo not drawn) [secnidazole, 1-(2-methyl-5-nitro-1H-imidazol-1-yl) propan-2-ol, reference compound] | 50% | – | – | –
2 | – | – | α,2-dimethyl-5-nitro-1H-imidazole-1-ethanol-d3 [secnidazole-d3] | – | greater than 96% | did not demonstrate any depletion | did not demonstrate any depletion
3 | – | – | α,2-dimethyl-5-nitro-1H-imidazole-1-ethanol-d6 [secnidazole-d6] | – | less than 100% | did not demonstrate any depletion | did not demonstrate any depletion
